Reference: patent US12156922B2, “Copper-containing complex and uses thereof” (Bar-Ilan University, priority 2017, dated 2024)
No end group written: not given here. *: point of attachment. MTSSL = S-(1-oxyl-2,2,5,5-tetramethyl-2,5-dihydro-1H-pyrrol-3-yl)methyl methanesulfonothioate spin label conjugate, CC1(C)C=C(CS*)C(C)(C)N1[O]

Columns and labels:
[1] = UV-visible titration of ATSM-Cu(II) complex with Cu(II) chelators and peptides (311 nm / 465 nm); type: physicochemical; conditions: 30% DMSO in 0.1 M phosphate buffer (pH 7.4)
Method: (§1) The stability of the ATSM-Cu(II) complex was tested by using UV-visible spectrophotometry. […] In order to confirm the dissociation of ATSM-Cu(II) complex or the formation of copper complex with ligands or copper chelation by ligands, the effect of ligands on ATSM-Cu(II) was also tested using electron paramagnetic resonance (EPR) spectroscopy.
Stock solutions of CuCl2 (10 mM), 1,10-phenanthroline (10 mM), IDA (10 mM), and L-histidine (10 mM), NTA (5 mM) and Pep1 (5 mM) were prepared in ultrapure water (Milli-Q®). Stock solutions (1 mM) of HAGAH, HGGH and HTGMK peptides were prepared by dissolution in 0.1 M phosphate buffer (pH 7.4).
In order to facilitate the solubility of ATSM-Cu(II) complex, all the measurements were carried out in 30% DMSO in 0.1 M phosphate buffer (pH 7.4), at physiological conditions.

[2] = EPR of ATSM-Cu(II) complex after addition of ligands; type: physicochemical; conditions: 0.1 mM ATSM-Cu(II), 4 molar equivalents of ligand; 30% DMSO, 0.1 M phosphate buffer (pH 7.4)
Method: as §1
The stability of ASTM-Cu(II) complex was further studied by EPR spectroscopy. 0.1 mM of ATSM-Cu(II) complex was prepared in 30% DMSO and 0.1 M phosphate buffer (pH 7.4).

[3] = UV-visible spectrophotometry of Tyr-peptide binding to Cu(II), absorption at 276 nm
Method: In order to compare affinity of peptides to Cu(II)-ligand-peptide complexes, UV-visible spectrophotometry was used to assess the degree of incorporation of Cys1-Tyr (SEQ ID NO: 51) and Met1-Tyr (SEQ ID NO: 50) peptides into Cu(II)-containing complexes, at various concentrations of Cu(II), IDA and peptide. The spectrophotometry focused on changes in Tyr residue absorption at about 276 nm. […]
In addition, 1 mM of peptide (16.6 μl) with 1 mM CuCl2 (12.5 μl) in ultrapure water (258.4 μl) was titrated with various concentrations (ranging from 0.25 to 1 mM or 0.25 to 1.25 mM) of IDA.

DA3 breast cancer cells = assay: Cu(I) levels in cells by bicinchoninic acid (BCA) absorption at 562 nm; type: cell-based
Method: The interaction between cells and Cu(II)-ligand-peptide complexes under various conditions was investigated by contacting DA3 breast cancer cells with a Cu(II)-IDA-Cys1 complex (prepared as described in Example 2) or with CuCl2 as a control. The concentration of reduced copper (Cu(I)) was then determined by complexation with bicinchoninic acid (BCA) and evaluating the concentration of BCA-Cu(I) by measuring absorption at a wavelength of 562 nm.

[4] = Reduction of Cu(II) to Cu(I) by ascorbate in the presence of peptide, followed by room temperature EPR intensity; conditions: within 4000 seconds; 2 mM ascorbate; peptide:ascorbate:Cu(II) 1:2:2; room temperature
Method: For measuring Cu(II) reduction by EPR spectroscopy, 20 μl of aqueous CuCl2 solution (2 mM) was added to 20 μl of a solution of a tested peptide (1 mM). At time zero, 20 μl of ascorbic acid solution (2 mM) was added, and the solution was mixed under anaerobic conditions. Cu(II) EPR signal intensity (at the maximum EPR signal intensity (g⊥ position)) was measured as a function of time.
The effects of the mutations of the Pep2-Pep5 peptides on the reduction of Cu(II) to Cu(I) was then investigated, by evaluating the room temperature (RT) change in EPR intensity over time, as Cu(I) is EPR-silent. Reduction of Cu(II) was effected in the presence of 2 mM ascorbate (a peptide:ascorbate:Cu(II) molar ratio of 1:2:2). For comparison, the reduction of free Cu(II) in buffer was also measured.

[5] = UV-VIS titration of peptides with Cu(I), absorption at 265 nm; type: binding
Method: UV-Visible-IR absorption spectra were obtained using a Cary® Bio 100 spectrophotometer, or using a Chirascan™ spectrometer (Applied Photophysics), at room temperature with a 1 mm optical path-length cell. Acetone was used as a reference. Typically, peptides were measured at a concentration of 0.3 mg/ml. Difference absorption spectra were obtained for peptides titrated with Cu(I) from 200 to 600 nm with a step size and a bandwidth of 0.5 nm.
Cu(I) was added to peptide solutions in the form of tetrakis(acetonitrile)copper(I) hexafluorophosphate under nitrogen gas in order to preserve anaerobic conditions. No Cu(II) signal was observed by EPR, thereby confirming the purity of the Cu(I).
In order to gain further insight into Cu(I) coordination, UV-VIS measurements were performed on the various peptides (as described n the Materials and Methods section hereinabove).

[6] = Low temperature CW-EPR of Cu(II) binding to Ctr1 N-terminal peptides in KPi buffer; conditions: 130 K
Method: Continuous wave electron […] (CW-EPR) spectra were recorded using an Elexsys™ E500 spectrometer (Bruker) operating at 9.0-9.5 GHz, equipped with a super-high-sensitivity CW resonator. The spectra were recorded at room temperature (RT; 295±2 K) or at low temperature (130±5 K) at a microwave power of 20.0 mW, modulation amplitude of 1.0 G, time constant of 60 or 80 milliseconds, and receiver gain of 60.0 dB. The samples were measured in 0.8 mm or 1.0 mm capillary quartz tubes (VitroCom) at RT. Solutions that were measured at low temperature were mixed with 20% glycerol, and measured in a 3.0 mm or 4.0 mm Wilmad® quartz tube.
Simulation of CW-EPR spectra was performed using MATLAB, with the EasySpin™ toolbox, according to procedures described by Stoll & Schweiger [J Magn Reson 2006, 178:42-55]. In fitting a spectrum to a simulation, emphasis is placed on small peaks of in the region of under 3000G.
The abovementioned peptides Pep1-Pep5 were investigated by CW-EPR measurements at low temperature (130 K), in the presence of different concentrations of Cu(II). The data were subsequently incorporated into simulations using the EasySpin™ tool box, and the first coordination sphere of Cu(II) was determined for each peptide, according to procedures described in Peisach & Blumberg [Arch Biochem Biophys 1974, 165:691-708]. The experimental data and comparisons with simulated data (including parameters derived from the simulations) for peptides Pep1-Pep5, at a variety of peptide:Cu(II) molar ratios, are presented in FIGS. 7-11. FIG. 12 presents the experimental data and comparisons with simulated data for peptides Pep1-Pep5 at a peptide:Cu(II) molar ratio of 1:1.
The simulation for each peptide took into account two Cu(II) species. The first species corresponds to free Cu(II) ions in water, where Cu(II) is coordinated to four oxygen atoms (4O coordination), with g∥=2.39±0.005, A∥=154±2.0 G. The second species corresponds to Cu(II) that is bound to the peptide with coordination of 3N1O or 2N2O.

Ctr1 = molecular target: T1, Ctr1 (Homo sapiens, UniProt O15431, DEL121-121); assay: EPR of Cu(II) coordination after exposure of complex to purified Ctr1; type: binding; conditions: 120 K, 0.5 mM
T1 construct: intein (cleaved yes); made in house; host or cells: Escherichia coli BL21 (DE3)
T1 sequence (O15431 with tags, fused parts or gaps DEL121-121): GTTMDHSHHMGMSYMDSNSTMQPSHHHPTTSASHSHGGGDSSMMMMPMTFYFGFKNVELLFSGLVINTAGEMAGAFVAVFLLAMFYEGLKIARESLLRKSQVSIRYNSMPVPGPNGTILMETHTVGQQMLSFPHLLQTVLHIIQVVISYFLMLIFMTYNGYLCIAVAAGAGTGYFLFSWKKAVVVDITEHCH
Source text: Human Ctr1 (hCtr1) was obtained by expression and purification of a protein (SEQ ID NO: 43), using a pYTB12-hCTR1 plasmid, in which the full length hCTR1 sequence was cloned into the pYTB12 plasmid. This construct encodes for a fusion protein composed of hCTR1, intein, and a chitin-binding domain. The plasmid was transformed into the Escherichia coli strain BL21 (DE3).
In order to assess the behavior of a Cu(II)-ligand-peptide complex under physiological conditions, the coordination of Cu(II) was investigated by EPR spectroscopy following exposure of a Cu(II)-IDA-Met1 complex (prepared as described in Example 2) to the copper transporter Ctr1 (in a purified state), which plays a central role in the cellular copper cycle. For comparison, the behavior of Cu(II)-IDA (without a peptide) was also investigated under such conditions. EPR spectra were interpreted by comparison to simulated spectra prepared using the EasySpin™ computational package.

Compound: N[C@@H](Cc1c[nH]cn1)C(=O)O [L-His, L-histidine]
- molar equivalents sufficient/needed to remove copper from the ATSM-Cu(II) complex [1]: at least four molar equivalents
- effect on electron paramagnetic spectrum of ATSM-Cu(II) complex [2]: induced significant changes

Compound: MYGMKGMSY [Met1-Tyr]
- IDA-dependent change in absorption at 276 nm ([3]; 1 mM peptide, 1 mM CuCl2, titrated with IDA): larger IDA-dependent change in absorption than did Cys1-Tyr

Compound: [Cl][Cu][Cl] [free Cu(II) ions, CuCl2]
- time for which Cu(I) concentration in cells is maintained (DA3 breast cancer cells; 1.5 mM): depleted from the cell within several hours
- Cu(I) ions in cells, hypoxic vs normoxic conditions (DA3 breast cancer cells; 1.5 mM, 2, 6 or 24 hours after exposure): more Cu(I) ions are observed in cells under hypoxic conditions than under normoxic conditions
- entry of copper into cells in the presence of Ag(I) ions, a Ctr1 inhibitor (DA3 breast cancer cells; 3 mM Ag(I) ions, 1.5 mM copper species): not blocked

Compound: MDASHHMGMSYMDS (Pep3 peptide amino acid sequence)
- Cu(II) reduced [4]: about 5%
- Cu(I):peptide molar ratio at which binding occurred ([5]; titration with Cu(I)): exceeding 5.0
- percentage of Cu(II) bound to peptide (species other than 4O coordination) ([6]; peptide:Cu(II) molar ratio 1:0.6): 70%
- percentage of Cu(II) bound to peptide (species other than 4O coordination) ([6]; peptide:Cu(II) molar ratio 1:0.8): 70%
- percentage of Cu(II) bound to peptide (species other than 4O coordination) ([6]; peptide:Cu(II) molar ratio 1:1.4): 63%
- percentage of Cu(II) bound to peptide (species other than 4O coordination) ([6]; peptide:Cu(II) molar ratio 1:2): 55%
- percentage of Cu(II) bound to peptide (species other than 4O coordination) ([6]; peptide:Cu(II) molar ratio 1:3): 55%

Compound: c1cnc2c(c1)ccc1cccnc12 [1,10-phenanthroline]
- molar equivalents sufficient/needed to remove copper from the ATSM-Cu(II) complex [1]: two molar equivalents
- effect on electron paramagnetic spectrum of ATSM-Cu(II) complex [2]: induced significant changes

Compound: O=C(O)CN(CC(=O)O)CC(=O)O [NTA, nitrilotriacetic acid]
- molar equivalents sufficient/needed to remove copper from the ATSM-Cu(II) complex [1]: at least four molar equivalents
- effect on electron paramagnetic spectrum of ATSM-Cu(II) complex [2]: induced significant changes

Compound: O=C([O-])CNCC(=O)[O-].[Cu+2] [Cu(II)-IDA]
- coordination of Cu(II) in the presence of Ctr1 (Ctr1): becomes coordinated to the Ctr1

Compound: O=C(O)CNCC(=O)O [IDA, Imino-diacetic acid]
- molar equivalents sufficient/needed to remove copper from the ATSM-Cu(II) complex [1]: at least four molar equivalents
- effect on electron paramagnetic spectrum of ATSM-Cu(II) complex [2]: induced significant changes

Compound: MTSSL-CMDHSHHMGMSYADSC-MTSSL (C(MTSSL)MDHSHHMGMSYADSC(MTSSL)-NH2; N-terminus assumed; SMILES CSCC[C@H](NC(=O)CNC(=O)[C@H](CCSC)NC(=O)[C@H](Cc1c[nH]cn1)NC(=O)[C@H](Cc1c[nH]cn1)NC(=O)[C@H](CO)NC(=O)[C@H](Cc1c[nH]cn1)NC(=O)[C@H](CC(=O)O)NC(=O)[C@H](CCSC)NC(=O)[C@@H](N)CSSCC1=CC(C)(C)N([O])C1(C)C)C(=O)N[C@@H](CO)C(=O)N[C@@H](Cc1ccc(O)cc1)C(=O)N[C@@H](C)C(=O)N[C@@H](CC(=O)O)C(=O)N[C@@H](CO)C(=O)N[C@@H](CSSCC1=CC(C)(C)N([O])C1(C)C)C(N)=O) [Pep10]
- absorption at 265 nm upon addition of Cu(I) (Cu(I) binding) ([5]; 3-20 molar equivalents of Cu(I)): did not change upon addition of Cu(I)

Compound: KSMAACAM (Cys1 peptide sequence)
- affinity to Cu(II), comparison of peptides ([3]; from Cys1-Tyr and Met1-Tyr titrations): considerably stronger affinity to Cu(II) than does Met1
